Data taken from patent US12708604B2, “Lyophilized preparation of prostaglandin E1 methyl ester for injection and production and use thereof” (Xi'an Hanfeng Pharmaceutical Co., Ltd., priority 2018, dated 2026).
Read-outs that look alike come from different tables or passages of the source.

Assays:
[1] = system: isolated rabbit blood vessels (thoracic aorta vascular ring); assay: Vasodilation test in vitro (isolated aortic ring); assay type: cell-based, New Zealand white rabbits; conditions: Oryctolagus cuniculus; cumulative addition 0.05-25.6 nM; read-out: diastolic efficacy on isolated rabbit blood vessels, EC50
Experimental: In the experiment, rabbits were selected to prepare isolated aortic ring specimens: New Zealand white rabbits, male, weighing (2.5±0.3) kg. The rabbit was stunned with a blunt instrument, fixed on the rabbit dissecting table, and the thoracic aorta was quickly separated, and placed in a petri dish filled with saturated Kerbs solution (containing NaCl 6.9 g, KCl 0.35 g, MgSO4.7H2O 0.29 g, KH2PO4 0.16 g, NaHCO3 2.1 g, CaCl2 0.28 g, glucose 2 g per 1000 mL) at 37° C. and continuously introduced with mixed gas (95% O2, 5% CO2). The remaining blood in the blood vessel was squeezed out, and the peripheral fat and connective tissue were carefully peeled off, and it was cut into 0.5 cm long arterial rings for use. […]
BL-420S biological function experiment system (Chengdu Techman Technology) was used to record the variation of vascular ring tension. After the vascular ring contraction was stable, prostaglandin E1 and the compounds of the Examples were accumulatively added to successively increase the final mass concentration of prostaglandin E1 in the bath tube to 0.05, 0.1, 0.2, 0.4, 0.8, 1.6, 3.2, 6.4, 12.8, 25.6 nM, and the diastolic efficacies of the vascular ring were recorded.

[2] = system: ADP-induced platelet aggregation; assay: Anti-platelet aggregation test in vitro (ADP-induced, rat platelet-rich plasma); assay type: cell-based, SD rats; conditions: for inhibition at 100 µM: Platelet, 2 μL of 100 μM compound in 300 μL rat PRP, read-out: inhibition rate on ADP-induced platelet aggregation; for onset of anti-aggregation effect after addition to PRP: immediately after addition
Experimental: When healthy adult SD rats were anesthetized by intraperitoneal injection of 10% chloral hydrate, fresh whole blood was collected from the abdominal aorta and added to a centrifuge tube anticoagulated with 3.8% sodium citrate solution, and centrifuged at 900 rpm for 10 minutes to remove the upper platelet-rich plasma (PRP) for use. The tube having PRP removed was further centrifuged at 4000 rpm for 10 minutes, and the upper clarified plasma (PPP) was removed for use. In the experiment, Techlink model LBY-NJ4 4-channel platelet aggregator was used to determine the anticoagulant efficacy of each compound.
Into a sample cup containing 300 μL of PRP, 2 μL of 100 μM PGE1, Compound 1 of Example, Compound 2 of Example and methanol (solvent) were first added. After incubated for different periods (0, 1, 2, 4, 7, 10, 15 min), […], of aggregation inducer 180 μM ADP solution was added. The aggregation rate of each sample was measured, and the inhibitory rate of the compound on ADP-induced platelet aggregation was calculated. Inhibition rate %=(solvent aggregation rate−compound aggregation rate)/solvent aggregation rate×100%

[3] = 10 min, after 10 minutes of incubation

For `CCCCC[C@H](O)/C=C/[C@H]1[C@H](O)CC(=O)[C@@H]1CCCCCCC(=O)OC` [Compound 1], which EC50 [1] is on record?
The EC50 was 1.09 nM.

And the inhibition at 100 µM [2, 3]?
Its inhibition at 100 µM is 43.7%.

And the “onset of anti-aggregation effect after addition to PRP” value (“onset of anti-aggregation effect” for short) ([2]; rat PRP)?
The value was “take effect immediately”.

And the “duration of anticoagulant effect relative to PGE1” value ([2]; rat PRP, versus PGE1)?
Its value is 2 times.

With `CCCCC[C@H](O)/C=C/[C@H]1[C@H](O)CC(=O)[C@@H]1CCCCCCC(=O)OCC` [Compound 2] as the molecule, how does the inhibition at 100 µM [2, 3] read?
Its inhibition at 100 µM is 51.9%.

What about the “onset of anti-aggregation effect” value ([2]; rat PRP) of the same molecule?
The value was “does not take effect immediately”.

`CCCCC[C@H](O)/C=C/[C@H]1[C@H](O)CC(=O)[C@@H]1CCCCCCC(=O)O` [PGE1, Prostaglandin E1] was tested. Which EC50 [1] did it give?
Its EC50 is 9.77 nM.

What about the inhibition at 100 µM ([2]; 4 min, after 4 minutes of incubation) of the same molecule?
The inhibition at 100 µM was 4.93%.

And the “onset of anti-aggregation effect” value ([2]; rat PRP)?
The value was “take effect immediately”.
